Experimental findings from PMC11602157, “ZNF512B binds RBBP4 via a variant NuRD interaction motif and aggregates chromatin in a NuRD complex-independent manner” (Nucleic Acids Research, 2024) are described below.

The assay addresses T1, RBBP4 (Homo sapiens, UniProt Q09028).
T1 construct: Expression of recombinant RBBP4 protein was done as described ([32]); His-tag (inferred from His-Trap purification); made in house
As to the kind of experiment: Competitive fluorescence polarization (displacement of FAM-labeled ZNF512B tracer). Type of assay: binding. As to conditions: ratio of competitive ki, ZNF512B vs FOG-1. How it is done:
Expression of recombinant RBBP4 protein was done as described ([32]). RBBP4 was purified by FPLC using the Äkta Start (Cytiva) via a His-Trap column (71502768) and subsequently a HiTRAP Q column (29051325) by standard procedures outlined in the instructions of the manufacturer. To determine the dissociation constant (kD), serial dilutions of RBBP4 protein (10–0 μM, 25 μl) in 50 mM Tris/Cl pH 7.5, 150 mM NaCl and 0.02% Triton™ X-100 were added to 25 μl of the fluorescently tagged tracer peptide for a finale volume of 50 μl with 1 nM tracer. The 384-well plate (GBO 781 900) was measured (Tecan Spark 20M) after 60 min and the kD values were calculated by converting the mP values into their corresponding anisotropy (A) values following the equation:
Hereby, A = anisotropy and P = polarization. These values were plotted versus the respective concentrations of the protein with a non-linear regression according to the following equation: […]
Hereby, A is the experimental anisotropy, Af is the anisotropy for the free ligand, Ab is the anisotropy for the fully bound ligand, LT is the total added concentration of ligand, kD is the equilibrium dissociation constant and RT is the total receptor concentration. […] Inhibition constant (ki) values were calculated using the following equation described previously by Wang et al. and the standard deviation was calculated for each ki value ([35]).
For orientation: Fluorescence polarisation rises when a labelled molecule tumbles more slowly, as on binding a larger partner.

T1 sequence (Q09028 whole entry): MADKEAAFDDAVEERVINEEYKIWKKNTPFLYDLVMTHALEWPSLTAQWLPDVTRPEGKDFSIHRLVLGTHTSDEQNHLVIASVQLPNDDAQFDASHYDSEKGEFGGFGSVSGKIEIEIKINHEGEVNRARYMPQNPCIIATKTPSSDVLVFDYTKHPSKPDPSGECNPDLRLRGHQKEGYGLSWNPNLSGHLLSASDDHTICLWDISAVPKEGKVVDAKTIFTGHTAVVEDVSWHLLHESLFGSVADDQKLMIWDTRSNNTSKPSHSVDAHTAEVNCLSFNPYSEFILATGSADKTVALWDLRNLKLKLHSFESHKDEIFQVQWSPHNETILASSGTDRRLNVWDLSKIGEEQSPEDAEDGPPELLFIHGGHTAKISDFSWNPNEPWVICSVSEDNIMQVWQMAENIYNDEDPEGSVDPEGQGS

For the compound `CC(=O)N[C@@H](CCCCN)C(=O)N[C@@H](Cc1c[nH]cn1)C(=O)N[C@@H](CCCNC(=N)N)C(=O)N[C@@H](CCCNC(=N)N)C(=O)N[C@@H](CCCCN)C(=O)N[C@@H](CCC(N)=O)C(=O)N[C@@H](CCCCN)C(=O)N[C@H](C(=O)N1CCC[C@H]1C(=O)N[C@@H](CCCCN)C(=O)N[C@@H](CCCCN)C(=O)N[C@@H](Cc1ccccc1)C(N)=O)[C@@H](C)O` [ZNF512B-WT], the “higher affinity for RBBP4 than FOG-1” value is given as > 60 -fold.
